Experimental data published in PMC11047580, “Design and Synthesis of Novel Amino and Acetamidoaurones with Antimicrobial Activities” (Antibiotics, 2024).
≈ marks a conversion by molar mass, not a printed value.

Columns and labels:
[1] = Cytotoxic assay (resazurin); settings: human, Caco-2
[2] = system: liver cell line HepG2; settings: human
[3] = system: C. albicans DSM10697; test: MIC assay; format: cell-based, Candida albicans; settings: Candida albicans, DSM10697; two-fold serial dilutions in liquid media; n = 2–3
[4] = system: Bacillus cereus (DSM31); test: MIC assay; format: cell-based; settings: two-fold serial dilutions in liquid media, n = 2–3
[5] = system: Klebsiella pneumonia (DSM26371); test: MIC assay; format: cell-based; settings: two-fold serial dilutions in liquid media, n = 2–3
[6] = system: intestinal cell line Caco-2; settings: human
[7] = system: Candida tropicalis (DSM9419); test: MIC assay; format: cell-based; settings: two-fold serial dilutions in liquid media, n = 2–3
[8] = system: Salmonella enterica (CIP80.39); test: MIC assay; format: cell-based; settings: two-fold serial dilutions in liquid media, n = 2–3
[9] = system: Brucella melitensis (NR-256); test: microbe, parasite or virus in culture; format: cell-based; settings: read-out: MIC Brucella melitensis (NR-256)
[10] = system: Clostridium botulinum (DSM1985); test: microbe, parasite or virus in culture; format: cell-based; settings: DSM1985, read-out: MIC Clostridium botulinum (DSM1985)
[11] = system: Clostridium difficile (DSM1296); test: MIC assay; format: cell-based; settings: Clostridioides difficile, two-fold serial dilutions in liquid media, n = 2–3
[12] = system: Candida auris (DSM21092); test: MIC assay; format: cell-based; settings: Candidozyma auris, two-fold serial dilutions in liquid media, n = 2–3
[13] = system: human cells (A498, BEAS-2B, Caco-2, HaCaT, HepG2, IMR-90); test: Cytotoxic assay, summary over the six human cell types
[14] = as above; settings: human, 48 h exposure
[15] = system: Helicobacter pylori (ATCC43504); test: MIC assay; format: cell-based; settings: two-fold serial dilutions in liquid media, n = 2–3
[16] = system: Mycobacterium abscessus S (CIP 104536^T); test: MIC assay (REMA); format: cell-based; settings: REMA microdilution, n = 2–3
[17] = system: kidney epithelial cell line A498; settings: human
[18] = system: Mycobacterium abscessus R(CIP 104536^T); test: MIC assay (REMA); format: cell-based; settings: REMA microdilution, n = 2–3
[19] = system: E. coli ATCC8739; test: MIC assay; format: cell-based, Escherichia coli; settings: Escherichia coli, ATCC8739; two-fold serial dilutions in liquid media; n = 2–3
[20] = system: Clostridium perfringens (ATCC13124); test: microbe, parasite or virus in culture; format: cell-based; settings: ATCC13124, read-out: MIC Clostridium perfringens (ATCC13124)
[21] = system: S. aureus ATCC6538P; test: MIC assay; format: cell-based, Staphylococcus aureus; settings: Staphylococcus aureus, ATCC6538P; two-fold serial dilutions in liquid media; n = 2–3
[22] = Cytotoxic assay (resazurin); settings: human, IMR-90 normal lung fibroblasts
[23] = system: Propionibacterium acnes (ATCC6919); test: MIC assay; format: cell-based; settings: Cutibacterium acnes, two-fold serial dilutions in liquid media, n = 2–3
[24] = system: Enterococcus faecalis (DSM2570); test: MIC assay; format: cell-based; settings: two-fold serial dilutions in liquid media, n = 2–3
[25] = system: Streptococcus pyogenes (DSM20565); test: MIC assay; format: cell-based; settings: two-fold serial dilutions in liquid media, n = 2–3
[26] = system: Acinetobacter baumannii (DSM30007); test: MIC assay; format: cell-based; settings: two-fold serial dilutions in liquid media, n = 2–3
[27] = system: MRSA (ATCCBAA-1717); test: MIC assay; format: cell-based, methicillin-resistant S. aureus; settings: Staphylococcus aureus, read-out: MIC MRSA (ATCCBAA-1717)
[28] = system: Cryptococcus neoformans (DSM11959); test: MIC assay; format: cell-based; settings: two-fold serial dilutions in liquid media, n = 2–3
[29] = system: Enterococcus faecium (DSM20477); test: MIC assay; format: cell-based; settings: two-fold serial dilutions in liquid media, n = 2–3
[30] = system: Enterobacter cloacae (DSM30054); test: MIC assay; format: cell-based; settings: two-fold serial dilutions in liquid media, n = 2–3
[31] = system: B. subtilis ATCC6633; test: MIC assay; format: cell-based, Bacillus subtilis; settings: Bacillus subtilis, ATCC6633; two-fold serial dilutions in liquid media; n = 2–3
[32] = Cytotoxic assay (resazurin); settings: human, A498 kidney epithelial cells
[33] = system: Mycobacterium tuberculosis H37Rv (mc^26230); test: MIC assay (REMA); format: cell-based; settings: REMA microdilution, n = 2–3
[34] = Cytotoxic assay (resazurin); settings: human, HaCaT normal epidermal keratinocytes
[35] = system: P. aeruginosa ATCC9027; test: MIC assay; format: cell-based, Pseudomonas aeruginosa; settings: Pseudomonas aeruginosa, ATCC9027; two-fold serial dilutions in liquid media; n = 2–3
[36] = system: Listeria monocytogenes (DSM20600); test: MIC assay; format: cell-based; settings: two-fold serial dilutions in liquid media, n = 2–3

CC(=O)Nc1ccc2c(c1)C(=O)/C(=C/c1cccc(OCc3ccccc3)c1)O2 [Compound 10, (Z)-N-(2-(3-(benzyloxy)benzylidene)-3-oxo-2,3-dihydrobenzofuran-5-yl)acetamide]
CC50 at 48 h [1]: 200 µM | TI with MIC of 0.78 µM, HepG-2 [2]: 605.6 | MIC [3]: 50 µM (≈ 19.3 µg/mL) | MIC [4]: 12.5 µM (≈ 4.82 µg/mL) | MIC ([5]; Klebsiella pneumoniae, DSM26371): > 100 µM | MIC [5]: >100 µM | TI with MIC of 0.78 µM, Caco-2 [6]: 255.8 | MIC [7]: 100 µM (≈ 38.5 µg/mL) | MIC [8]: 25 µM (≈ 9.64 µg/mL) | MIC [9]: 25 µM (≈ 9.64 µg/mL) | MIC [10]: 0.78 µM (≈ 0.301 µg/mL) | MIC [11]: 12.5 µM (≈ 4.82 µg/mL) | MIC [12]: 50 µM (≈ 19.3 µg/mL) | Highest TI ([13]; highest CC50 on human cells divided by MIC on S. aureus): 37.7 | Lowest TI ([13]; lowest CC50 on human cells divided by MIC on S. aureus): 13.5 | CC50 at 48 h ([14]; Highest CC50, highest of the six human cell types): 472 µM | CC50 at 48 h ([14]; Lowest CC50, lowest of the six human cell types): 169 µM | CC50 at 48 h ([14]; Mean CC50, mean over the six human cell types): 322 µM | MIC [15]: 12.5 µM (≈ 4.82 µg/mL) | MIC ([16]; Mycobacteroides abscessus, CIP104536, S morphotype): > 100 µM | MIC Mycobacterium abscessus S (CIP 104536^T) ([16]; S morphotype): inactive | TI with MIC of 0.78 µM, A498 [17]: 510.5 | MIC ([18]; Mycobacteroides abscessus, CIP104536, R morphotype): > 100 µM | MIC Mycobacterium abscessus R(CIP 104536^T) ([18]; R morphotype): inactive | MIC [19]: 12.5 µM (≈ 4.82 µg/mL) | MIC [20]: > 100 µM | MIC [21]: 12.5 µM (≈ 4.82 µg/mL) | CC50 at 48 h [22]: 421 µM | MIC [23]: 100 µM (≈ 38.5 µg/mL) | MIC [24]: 50 µM (≈ 19.3 µg/mL) | MIC [25]: 50 µM (≈ 19.3 µg/mL) | MIC [26]: 12.5 µM (≈ 4.82 µg/mL) | MIC [27]: 12.5 µM (≈ 4.82 µg/mL) | MIC [28]: 25 µM (≈ 9.64 µg/mL) | MIC [29]: 100 µM (≈ 38.5 µg/mL) | MIC ([30]; Enterobacter cloacae, DSM30054): > 100 µM | MIC [30]: >100 µM | MIC [31]: 3.12 µM (≈ 1.2 µg/mL) | CC50 at 48 h [32]: 398 µM | MIC ([33]; Mycobacterium tuberculosis, H37RV): > 100 µM | MIC Mycobacterium tuberculosis H37Rv (mc^26230) [33]: inactive | CC50 at 48 h [34]: 268 µM | melting point: 204.5 °C | MIC [35]: 25 µM (≈ 9.64 µg/mL) | MIC [36]: 3.12 µM (≈ 1.2 µg/mL)
